Data: patent US20160144021A1, “Vaccine Composition And Method Of Use” (MEDIMMUNE, LLC, priority 2013, published 2016)
Where two headings read alike, the source gives them in different places.

How the values were obtained:
[1] = test system: RSV A2; experiment: GFP-tagged RSV A2 micro-neutralization of sera, naive BALB/c mice; assay type: in vivo; details: day 28, prior to challenge, 0.3 μg RSV sF days 0 and 14
[2] = test system: RSV sF; experiment: Serum F-specific IgA ELISA, 1x RSV seropositive BALB/c mice; assay type: in vivo; details: Day 14; RSV sF at 10 μg, RSV sF+GLA-SE at any of the 3 doses
Method: Serology readouts were made at Days 0, 14, 28, 42, 56, and 73 for each group. Animals were lightly anesthetized with isoflurane and bled intraorbitally. Serum was separated and stored at −20° C. and thawed for testing. Total anti-F IgG were measured at each timepoint, with anti-F IgG1 and anti-F IgG2a ELISA endpoint dilution titers measured at Day 0 and Day 42. RSV neutralization titer was determined by a RSV A2-GFP microneutralization assay. The polyclonal nature of the anti-F IgG response was evaluated on Day 42 by competition ELISA with site-specific monoclonal antibodies to RSV-F. Anti-F IgA endpoint dilution titers were measured at Day 14 for each group.

[3] = test system: RSV A2; experiment: RSV A2-GFP microneutralization of sera, naive Sprague Dawley rats; assay type: in vivo; details: Day 22, 22 days post Dose 1; RSV sF 10 and 100 μg groups
Method: In a subsequent study, the immunogenicity and protection following a prime-boost regimen of RSV-SF was evaluated. 40 naive female Sprague Dawley rats were divided into designated vaccine cohorts of 5-6 animals per cohort. Briefly, test groups were given RSV sF (10 μg or 100 μg per animal) without adjuvant or RSV sF (10 μg or 100 μg per animal) with GLA-SE (2.5 μg in 2% SE). Negative control groups were dosed with placebo (PBS buffer) or adjuvant GLA-SE (2.5 μg/2%) without RSV sF. […] Groups 1-6 were inoculated IM with 500 μL of designated vaccine article on Day 0 and Day 22, while Group 7 was inoculated IN with 200 μL of RSV A2 virus on day 0 only. […] Rats were euthanized at 4 days post challenge on Day 46, the day of peak viral replication determined from Study 1. Lungs (excluding 1 lobe which was formalin-fixed) and noses were homogenized and quantified for viral titers.
Serological responses to vaccination were evaluated at 6 hours post immunization, D22, and D42 for all animals and at Day 14 for a subset of 3 animals per group. […] Serum obtained 6 hours post-immunization was evaluated for cytokine titers by multiplexed ELISA. Serum from Days 14, 22, and 42 were measured for total anti-F IgG ELISA endpoint dilution titers. Day 42 serum was evaluated for the specific contribution of IgG1, IgG2a, and IgG2b anti-F responses by ELISA endpoint dilution titers. […]

[4] = test system: RSV A2; experiment: RSV A2-GFP neutralizing Ab titers of sera, cynomolgus monkeys; assay type: in vivo
From the text: At Day 169, 5 months post vaccination, the booster vaccination was given.

[5] = test system: RSV sF protein

“RSV sF: RSV soluble F protein, amino acids 1-524 of the RSV A2 F sequence lacking the transmembrane domain, given without adjuvant” was tested, and the “serum RSV neutralizing titers” value [1] was 4.1 log2, the “serum F-specific IgA titers versus seropositive animals vaccinated with PBS” value [2] was “significantly higher serum F-specific IgA titers” and the “serum neutralizing titers (log2 GMT IC50)” value [3] was “not significantly different from placebo”. The “animals with 4-fold boost in neutralizing titers from Day −7 levels” value ([4]; Day 42) was 1/4, the “geometric mean RSV neutralizing Ab titer” value ([4]; Day 42) was 3.52±1.14 log 2 and the “RSV neutralizing Ab titers” value ([4]; Day 169) was 2.97 log 2. The “geomean neutralizing Ab titers” value ([4]; Day 183, 14 days following the third immunization) was 4.46±1.79 log 2, the “animals with ≧4-fold rise in IgG titers at Day 183 compared to Day 169” value ([5]; 4 animals per group) was 2 of 4 and the “geomean anti-F IgG titer” value ([5]; Day 42, 100 μg RSV sF at days 0 and 28) was 10.45±2.68 log 2. For the same substance, the “geomean anti-F IgG titer” value ([5]; Day 183, 14 days post booster at Day 169) was 12.55±2.16 log 2.
